Measurements: publication PMC11582101, “Unlocking the potential: unveiling tyrphostins with Michael-reactive cyanoacrylate motif as promising inhibitors of human 5-lipoxygenase” (Pflugers Archiv, 2024)
pIC50: −log10 of the molar value. Entries after “also recorded” stand apart in the source; their conditions may differ. Where two headings read alike, the source gives them in different places.

What was measured:
[1] = target: T1, 12-LO (Homo sapiens, UniProt P18054); assay: 12-HETE formation in platelets; details: 20 µM AA, 2.5 µM A23187, n = 3–6
T1 sequence (P18054 1-663): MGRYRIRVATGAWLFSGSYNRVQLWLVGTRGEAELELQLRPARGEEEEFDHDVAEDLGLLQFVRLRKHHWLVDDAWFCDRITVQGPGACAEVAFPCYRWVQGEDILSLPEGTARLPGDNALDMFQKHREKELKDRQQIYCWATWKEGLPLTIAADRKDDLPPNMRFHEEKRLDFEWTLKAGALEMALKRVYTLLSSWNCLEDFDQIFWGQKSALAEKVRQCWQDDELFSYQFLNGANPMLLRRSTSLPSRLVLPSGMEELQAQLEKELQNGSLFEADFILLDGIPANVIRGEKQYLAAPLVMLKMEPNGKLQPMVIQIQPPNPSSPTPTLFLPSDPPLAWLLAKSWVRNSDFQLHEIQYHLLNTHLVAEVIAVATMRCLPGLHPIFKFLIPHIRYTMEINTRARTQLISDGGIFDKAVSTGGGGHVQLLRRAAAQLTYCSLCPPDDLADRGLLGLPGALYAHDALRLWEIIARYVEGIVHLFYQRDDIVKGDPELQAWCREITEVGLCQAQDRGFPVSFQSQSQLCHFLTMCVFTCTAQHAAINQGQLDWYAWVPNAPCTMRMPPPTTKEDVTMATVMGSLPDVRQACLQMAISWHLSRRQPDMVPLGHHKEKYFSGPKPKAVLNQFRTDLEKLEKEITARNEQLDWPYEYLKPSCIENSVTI

[2] = tested on: 15-LO; assay: 15-HETE formation in intact PMNL; details: for pIC50: read-out: IC50 for inhibition of 15-HETE formation, PMNL
[3] = target: T2, 5-LO (Homo sapiens, UniProt P09917); assay: 5-LO product formation in intact PMNL
T2 sequence (P09917 1-674): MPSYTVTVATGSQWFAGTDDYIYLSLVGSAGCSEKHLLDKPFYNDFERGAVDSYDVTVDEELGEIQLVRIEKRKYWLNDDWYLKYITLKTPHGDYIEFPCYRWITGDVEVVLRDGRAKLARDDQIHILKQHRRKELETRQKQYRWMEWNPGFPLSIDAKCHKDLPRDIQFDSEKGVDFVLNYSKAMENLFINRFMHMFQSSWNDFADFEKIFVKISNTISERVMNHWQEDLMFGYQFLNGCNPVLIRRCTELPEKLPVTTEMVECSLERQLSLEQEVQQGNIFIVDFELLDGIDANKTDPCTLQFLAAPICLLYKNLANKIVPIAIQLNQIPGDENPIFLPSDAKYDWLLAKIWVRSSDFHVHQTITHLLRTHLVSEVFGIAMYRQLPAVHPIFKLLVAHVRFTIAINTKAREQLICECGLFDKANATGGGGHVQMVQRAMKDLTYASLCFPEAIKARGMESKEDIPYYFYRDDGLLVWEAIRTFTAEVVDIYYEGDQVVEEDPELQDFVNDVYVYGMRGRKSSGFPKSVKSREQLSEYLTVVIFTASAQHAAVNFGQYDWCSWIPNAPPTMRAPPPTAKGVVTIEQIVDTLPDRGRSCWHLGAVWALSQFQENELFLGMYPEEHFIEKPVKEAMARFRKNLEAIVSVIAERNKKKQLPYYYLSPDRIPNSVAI

[4] = target: T3, r5-LO_WT (Homo sapiens, UniProt P09917); assay: Covalent inhibitor binding by mass spectrometry, r5-LO_WT; details: 20 µM protein, 100 µM compound, at least 1 h RT
T3 construct: made in house; host or cells: E. coli BL21 (DE3)
T3 sequence (P09917 1-674): T2 sequence (P09917 1-674)

[5] = tested on: U2OS cells; details: human, 10 µM
[6] = tested on: U2OS cells; assay: Multiplex live-cell high-content assay; details: up to 48 h, normalized to DMSO
[7] = intact PMNL, 20 µM AA, 2.5 µM A23187, (95% CI), n = 3–6
[8] = IC50 for inhibition of 5-LO product formation, PMNL, intact PMNL, 20 µM AA, 2.5 µM A23187, (95% CI), n = 3–6

| Compound | IC50 for inhibition of 12-HETE formation, platelets [1] | IC50 for inhibition of 15-HETE formation, PMNL [2, 7] | pIC50 [3] | further results |
| --- | --- | --- | --- | --- |
| N#C/C(=C\c1ccc(O)c(O)c1)C(=O)NCc1ccccc1 [AG490] | no inhibition |  |  | pIC50 [2, 7]: < 4.60; pIC50 [3, 8]: 5.96 |
| N#C/C(=C\c1ccc(O)c(O)c1)C(=O)O [AG30] |  | no inhibition |  | IC50 for inhibition of 5-LO product formation, PMNL [3, 7]: no inhibition |
| O=C(/C=C/c1ccc(O)c(O)c1)OCCc1ccccc1 [CAPE, caffeic acid phenethyl ester] | no inhibition |  | 6.64 | inhibitor adducts to r5-LO_WT detected by mass spectrometry [4]: did not detect mass shifts; normalized healthy cell count [5]: around 75%; pIC50 [2, 7]: 5.00 |
| N#CC(C#N)=Cc1ccc(O)cc1 [Tyrphostin 8] |  | no inhibition |  | IC50 for inhibition of 5-LO product formation, PMNL [3, 7]: no inhibition; IC50 for inhibition of 5-LO product formation, PMNL ([3]; intact PMNL, 20 µM AA, 2.5 µM A23187, (95% CI), n = 3–6, listed as tyrphostin 8): failed to inhibit |
| C[C@H](NC(=O)/C(C#N)=C/c1cccc(Br)n1)c1ccccc1 [WP1066] |  | moderate inhibition |  | pIC50 [2, 7]: 4.74; pIC50 [3, 8]: 6.03 |
| CC(C)(C)c1cc(C=C(C#N)C#N)cc(C(C)(C)C)c1O [Tyrphostin A9] | no inhibition | no inhibition | 5.96 | inhibitor adducts to r5-LO_WT detected by mass spectrometry [4]: did not detect mass shifts; normalized healthy cell count ([6]; 1 µM inhibitor): 57%; normalized healthy cell count ([6]; 1 µM inhibitor, listed as tyrphostin A9): about 50%; normalized healthy cell count ([6]; 10 µM inhibitor): below 50% |
| N#CC(C#N)=Cc1ccc(O)c(O)c1 [AG18] | no inhibition | no inhibition | 5.27 |  |
| N#C/C(=C\c1ccc(O)c(O)c1)C(N)=O [(E)-AG99] | no inhibition | no inhibition | 5.14 |  |
| COc1ccc(/C=C(/C#N)c2cccnc2)cc1OC [RG13022] |  | no inhibition | < 4.52 |  |
| N#CC(C#N)=Cc1ccc([N+](=O)[O-])c(O)c1 [AG126] |  | no inhibition |  | IC50 for inhibition of 5-LO product formation, PMNL [3, 7]: no inhibition |
| CC(C)c1cc(/C=C(\C#N)C(=O)NCCCc2ccccc2)cc(C(C)C)c1O [SU1498] |  | did not show inhibition; also recorded: no inhibition | 6.12 |  |
| N#C/C(=C/c1cc(Cl)cc(Cl)c1)c1cccnc1 [RG14620] |  | no inhibition | 5.23 |  |
| AG825 |  |  |  | IC50 for inhibition of 15-HETE formation, PMNL [2]: no inhibition |
| N#C/C(=C\c1ccc(O)c(O)c1)C(=O)Nc1ccccc1 [AG494] | no inhibition |  | 6.07 | pIC50 [2, 7]: 4.66 |
| CC(C)(C)c1cc(C=C(C#N)C#N)cc(Br)c1O [AG1024] |  | no inhibition | 5.51 |  |
| CN[C@@H]1C[C@H]2O[C@@](C)([C@@H]1OC)n1c3ccccc3c3c4c(c5c6ccccc6n2c5c31)C(=O)NC4 [Staurosporine] |  |  |  | normalized healthy cell count ([6]; 10 µM inhibitor): about 25% |
| N#CC(C#N)=Cc1cc(O)c(O)c(O)c1 [AG82] | no inhibition | no inhibition | 5.10 |  |
